Here are results for nine molecules from patent publication US20160158317A1, “Antimicrobial Peptide Variants and Polynucleotides Encoding Same” (Adenium Biotech A/S, priority 2010, published 2016).

Where a SMILES comes first, the peptide text is derived from it. Bridges are numbered along the chain shown (N, C = ends).

This series is described as follows: Determination of the protein binding (90% serum, 30 kDa filter, HPLC). The format is in vitro ADME. Conditions: serum. The procedure:
Protein binding assays were performed as follows. The purified peptides were mixed with 90% serum and centrifuged through a 30 kDa filter. The ultra-filtrate and the non filtrated serum samples were quantified by HPLC measurements and the protein binding was subsequently calculated.

By fraction unbound is commonly meant free concentration divided by total concentration. The low end stands for little free substance, the high end for much free substance. As for `CC(C)[C@@H]1NC(=O)CNC(=O)[C@H](CC(N)=O)NC(=O)[C@H](CCCNC(=N)N)NC(=O)[C@H](Cc2ccc(O)cc2)NC(=O)[C@H](C(C)C)NC(=O)[C@@H]2CSSC[C@H](NC(=O)[C@H](C(C)C)NC(=O)[C@H](CCCNC(=N)N)NC1=O)C(=O)N[C@@H](Cc1c[nH]cn1)C(=O)N[C@@H](CCCNC(=N)N)C(=O)N[C@@H](CCCNC(=N)N)C(=O)N[C@H](C(=O)N[C@@H](CC(N)=O)C(=O)O)CSSC[C@H](NC(=O)[C@H](Cc1ccccc1)NC(=O)CN)C(=O)N[C@@H](Cc1c[nH]c3ccccc13)C(=O)N[C@@H](Cc1ccc(O)cc1)C(=O)N[C@@H](C(C)C)C(=O)N2` [compound 46] (H-GFCWYVCVYRNGVRVCHRRCN-OH; disulfide 3-20, 7-16 (inferred); N-terminus and C-terminus assumed), the free fraction (fraction unbound) is 0.12. The molecule `CC(C)[C@@H]1NC(=O)[C@H](CCCNC(=N)N)NC(=O)[C@H](Cc2ccc(O)cc2)NC(=O)CNC(=O)[C@H](CC(N)=O)NC(=O)[C@H](CCCNC(=N)N)NC(=O)[C@H](Cc2ccc(O)cc2)NC(=O)[C@H](C(C)C)NC(=O)[C@@H]2CSSC[C@H](NC1=O)C(=O)N[C@@H](Cc1c[nH]cn1)C(=O)N[C@@H](CCCNC(=N)N)C(=O)N[C@@H](CCCNC(=N)N)C(=O)N[C@H](C(=O)N[C@@H](CC(N)=O)C(=O)O)CSSC[C@H](NC(=O)[C@H](Cc1ccccc1)NC(=O)CN)C(=O)N[C@@H](Cc1c[nH]c3ccccc13)C(=O)N[C@@H](CC(N)=O)C(=O)N[C@@H](C(C)C)C(=O)N2` [compound 242] (H-GFCWNVCVYRNGYRVCHRRCN-OH; disulfide 3-20, 7-16 (inferred); N-terminus and C-terminus assumed) had a fraction unbound of 0.17. Turning to `CC(C)[C@@H]1NC(=O)[C@H](CCCNC(=N)N)NC(=O)[C@H](Cc2c[nH]c3ccccc23)NC(=O)[C@@H](NC(=O)[C@H](Cc2ccccc2)NC(=O)CN)CSSC[C@@H](C(=O)N[C@@H](CC(N)=O)C(=O)O)NC(=O)[C@H](CCCNC(=N)N)NC(=O)[C@H](CCCNC(=N)N)NC(=O)[C@H](Cc2ccc(O)cc2)NC(=O)[C@@H]2CSSC[C@H](NC1=O)C(=O)N[C@@H](C)C(=O)N[C@@H](Cc1ccc(O)cc1)C(=O)N[C@@H](CCCCN)C(=O)N[C@@H](CC(N)=O)C(=O)NCC(=O)N[C@@H](CCCCN)C(=O)N[C@@H](CCCNC(=N)N)C(=O)N[C@@H](CO)C(=O)N2` [compound 523] (H-GFCWRVCAYKNGKRSCYRRCN-OH; disulfide 3-20, 7-16 (inferred); N-terminus and C-terminus assumed), the unbound share (fraction unbound) was 0.1.

In the case of `CC(C)[C@@H]1NC(=O)[C@@H]2CSSC[C@H](NC(=O)[C@H](C(C)C)NC(=O)[C@H](CCCNC(=N)N)NC(=O)[C@H](C(C)C)NC(=O)[C@H](CCCCN)NC(=O)[C@H](CC(N)=O)NC(=O)[C@H](CCCNC(=N)N)NC(=O)[C@H](Cc3ccc(O)cc3)NC1=O)C(=O)N[C@@H](Cc1c[nH]cn1)C(=O)N[C@@H](CCCNC(=N)N)C(=O)N[C@@H](CCCNC(=N)N)C(=O)N[C@H](C(=O)N[C@@H](CC(N)=O)C(=O)O)CSSC[C@H](NC(=O)[C@H](Cc1ccccc1)NC(=O)CN)C(=O)N[C@@H](Cc1c[nH]c3ccccc13)C(=O)N[C@@H](CC(N)=O)C(=O)N[C@@H](C(C)C)C(=O)N2` [compound 227] (H-GFCWNVCVYRNKVRVCHRRCN-OH; disulfide 3-20, 7-16 (inferred); N-terminus and C-terminus assumed), the unbound share (fraction unbound) is 0.2. `CC(C)[C@@H]1NC(=O)CNC(=O)[C@H](CC(N)=O)NC(=O)[C@H](CCCNC(=N)N)NC(=O)[C@H](Cc2ccc(O)cc2)NC(=O)[C@H](C(C)C)NC(=O)[C@@H]2CSSC[C@H](NC(=O)[C@H](C(C)C)NC(=O)[C@H](CCCNC(=N)N)NC1=O)C(=O)N[C@@H](Cc1ccc(O)cc1)C(=O)N[C@@H](CCCNC(=N)N)C(=O)N[C@@H](CCCNC(=N)N)C(=O)N[C@H](C(=O)N[C@@H](CC(N)=O)C(=O)O)CSSC[C@H](NC(=O)[C@H](Cc1ccccc1)NC(=O)CN)C(=O)N[C@@H](Cc1c[nH]c3ccccc13)C(=O)N[C@@H](Cc1ccc(O)cc1)C(=O)N[C@@H](CO)C(=O)N2` [compound 19] (H-GFCWYSCVYRNGVRVCYRRCN-OH; disulfide 3-20, 7-16 (inferred); N-terminus and C-terminus assumed) gave a fraction unbound of 0.11. The molecule `CC(C)[C@@H]1NC(=O)CNC(=O)[C@H](CC(N)=O)NC(=O)[C@H](CCCNC(=N)N)NC(=O)[C@H](CCCCN)NC(=O)[C@H](C(C)C)NC(=O)[C@@H]2CSSC[C@H](NC(=O)[C@H](C(C)C)NC(=O)[C@H](CCCNC(=N)N)NC1=O)C(=O)N[C@@H](Cc1c[nH]cn1)C(=O)N[C@@H](CCCNC(=N)N)C(=O)N[C@@H](CCCNC(=N)N)C(=O)N[C@H](C(=O)N[C@@H](CC(N)=O)C(=O)O)CSSC[C@H](NC(=O)[C@H](Cc1ccccc1)NC(=O)CN)C(=O)N[C@@H](Cc1c[nH]c3ccccc13)C(=O)N[C@@H](CC(N)=O)C(=O)N[C@@H](C(C)C)C(=O)N2` [compound 305] (H-GFCWNVCVKRNGVRVCHRRCN-OH; disulfide 3-20, 7-16 (inferred); N-terminus and C-terminus assumed) gave a fraction unbound of 0.24. With `CC(C)[C@@H]1NC(=O)CNC(=O)[C@H](CC(N)=O)NC(=O)[C@H](CCCNC(=N)N)NC(=O)[C@H](Cc2ccc(O)cc2)NC(=O)[C@H](C(C)C)NC(=O)[C@@H]2CSSC[C@H](NC(=O)[C@H](C(C)C)NC(=O)[C@H](CCCNC(=N)N)NC1=O)C(=O)N[C@@H](Cc1ccc(O)cc1)C(=O)N[C@@H](CCCNC(=N)N)C(=O)N[C@@H](CCCNC(=N)N)C(=O)N[C@H](C(=O)N[C@@H](CC(N)=O)C(=O)O)CSSC[C@H](NC(=O)[C@H](Cc1ccccc1)NC(=O)CN)C(=O)N[C@@H](Cc1c[nH]c3ccccc13)C(=O)N[C@@H](CCCCN)C(=O)N[C@@H](C(C)C)C(=O)N2` [compound 10] (H-GFCWKVCVYRNGVRVCYRRCN-OH; disulfide 3-20, 7-16 (inferred); N-terminus and C-terminus assumed), the fraction unbound is 0.36. The molecule `CC(C)[C@@H]1NC(=O)CNC(=O)[C@H](CC(N)=O)NC(=O)[C@H](CCCNC(=N)N)NC(=O)[C@H](Cc2ccc(O)cc2)NC(=O)[C@H](C(C)C)NC(=O)[C@@H]2CSSC[C@H](NC(=O)[C@H]([C@@H](C)O)NC(=O)[C@H](CCCNC(=N)N)NC1=O)C(=O)N[C@@H](Cc1ccc(O)cc1)C(=O)N[C@@H](CCCNC(=N)N)C(=O)N[C@@H](CCCNC(=N)N)C(=O)N[C@H](C(=O)N[C@@H](CC(N)=O)C(=O)O)CSSC[C@H](NC(=O)[C@H](Cc1ccccc1)NC(=O)CN)C(=O)NCC(=O)N[C@@H](CCCNC(=N)N)C(=O)N[C@@H](C(C)C)C(=O)N2` [compound 171] (H-GFCGRVCVYRNGVRTCYRRCN-OH; disulfide 3-20, 7-16) showed a free fraction (fraction unbound) of 0.16. With `CC(C)[C@@H]1NC(=O)CNC(=O)[C@H](CC(N)=O)NC(=O)[C@H](CCCNC(=N)N)NC(=O)[C@H](Cc2ccc(O)cc2)NC(=O)[C@H](C(C)C)NC(=O)[C@@H]2CSSC[C@H](NC(=O)CNC(=O)[C@H](CCCNC(=N)N)NC1=O)C(=O)N[C@@H](Cc1ccc(O)cc1)C(=O)N[C@@H](CCCNC(=N)N)C(=O)N[C@@H](CCCNC(=N)N)C(=O)N[C@H](C(=O)N[C@@H](CC(N)=O)C(=O)O)CSSC[C@H](NC(=O)[C@H](Cc1ccccc1)NC(=O)CN)C(=O)N[C@@H](Cc1c[nH]c3ccccc13)C(=O)N[C@@H](Cc1ccc(O)cc1)C(=O)N[C@@H](C(C)C)C(=O)N2` [compound 38] (H-GFCWYVCVYRNGVRGCYRRCN-OH; disulfide 3-20, 7-16 (inferred); N-terminus and C-terminus assumed), the free fraction (fraction unbound) is 0.07.
